Consider 7 compounds from US20240349727A1, “SYNERGY BETWEEN MIXTURES OF ISOTHIOCYANATES AND COMMERCIAL FUNGICIDES” (priority 2021, published 2024).

Holding throughout (type): cell-based
For experiment [1], the system named is Fusarium verticilloides. The experiment in a line: In vitro fungitoxic activity, 48-well PDA outgrowth, curative (Example 2). The following applies: 168 h, fungicide alone, 7 days at room temperature. The protocol: (§1) All the experiments were done in the same way. In 48-well plates, each well was filled with a volume of 180 μL of the ITC, the fungicide or a combination of both at various concentrations and filled with 180 μL of Potato Dextrose Agar (PDA). Two or three wells were used per concentration for better accuracy. After solidification of the well a plug of 2×2 mm of grown fungi was placed in each well, and the 48-well plate was sealed with parafilm. After 7 days of incubation at room temperature, the fungal outgrowth was measured and the EC50 was calculated with a 4-parameter logistic regression in XLSTAT.
(§2) Afterward, a concentration of the fungicides at which the fungi is not growing (i.e. […] the EC50) was determined. Applicants repeated the 48-well experiment by filling the well with a mixture of the ITC and the fungicides; the fungicide concentration was kept constant at the determined concentration mentioned above and the ITC concentration was varied. As before, the fungal outgrowth was measured after 7 days of incubation. To calculate the synergistic properties of the combo ITC+fungicides, the Combination Index (CI) described by Chou (2006) was calculated using the CompuSyn software.

Experiment [2] relates to Rhizoctonia solani. The experiment in a line: In vitro fungitoxic activity, 48-well PDA outgrowth, curative. The note with it: 168 h, fungicide alone, 7 days at 20° C. The protocol:
(§3) All the experiments were done in the same way, with small differences between curative and preventive cases. In 48-well plates, each well was filled with a volume of 180 μL of the ITC, the fungicide or a combination of both at various concentrations and filled with 180 μL of Potato Dextrose Agar (PDA). Three wells were used per concentration for better accuracy. After solidification of the well, either a plug of 2×2 mm of grown fungi (curative case) or 20 μL of a spore solution (˜1E5 spores/mL, preventive case) was placed in each well, and the 48-well plate was sealed with parafilm. After 7 days of incubation at 20° C. in a controlled growth chamber, the fungal outgrowth was measured and the EC50 was calculated with a 4-parameter logistic regression in XLSTAT.
(§4) Afterward, a concentration of the fungicides at which the fungi is not growing (i.e. […] the EC50) was determined. Applicants repeated the 48-well experiment by filling the well with a mixture of the ITO and the fungicides; the fungicide concentration was kept constant at the determined concentration mentioned above and the ITO concentration was varied. As before, the fungal outgrowth was measured after 7 days of incubation. To calculate the synergistic properties of the combo ITO+fungicides, the Combination Index (CI) described by Chou (2006) was calculated using the CompuSyn software.

The test system of experiment [3] is Colletotrichum acutatum. In words: In vitro fungitoxic activity, 48-well PDA outgrowth, curative (Example 2). The following applies: 168 h, fungicide alone, 7 days at room temperature. The protocol: as §1, §2
Experiment [4] deals with Rhizoctonia solani. The experiment in a line: In vitro fungitoxic activity, 48-well PDA outgrowth, preventive (spore solution). The following applies: 168 h, fungicide alone, 7 days at 20° C. The protocol: as §3, §4
Experiment [5] relates to Lasiodiplodia pseudotheobromae. In words: In vitro fungitoxic activity, 48-well PDA outgrowth, curative (Example 2). The note with it: 168 h, read-out: EC50 fungicide. The protocol: as §1, §2
Experiment [6] deals with Botrytis cinerea. In words: In vitro fungitoxic activity, 48-well PDA outgrowth, curative. The following applies: 168 h, read-out: EC50 fungicide. The protocol: as §3, §4
Experiment [7] relates to Geotrichum candidum. The experiment is described as above. The following applies: 168 h, read-out: EC50 fungicide. The protocol:
as §3, §4

In experiment [8] the test system is Alternaria radicina. Described as above. The following applies: 168 h, read-out: EC50 fungicide. The protocol: as §3, §4
In experiment [9] the test system is Penicillium digitatum. Described as above. The following applies: 168 h, read-out: EC50 fungicide. The protocol:
as §3, §4

Experiment [10] deals with Plectosphaerella cucumerina. The experiment in a line: In vitro fungitoxic activity, 48-well PDA outgrowth, curative (Example 2). The following applies: 168 h, read-out: EC50 fungicide. The protocol:
as §1, §2

In experiment [11] the test system is Penicillium commune. Described as above. The note with it: 168 h, fungicide alone, 7 days at room temperature. The protocol: as §1, §2
In experiment [12] the test system is Geotrichum candidum. In words: In vitro fungitoxic activity, 48-well PDA outgrowth, preventive (spore solution). The note with it: 168 h, fungicide alone, 7 days at 20° C. The protocol:
as §3, §4

Setting [13] is: fungicide alone, curative, 7 days at room temperature.
Setting [14] is: fungicide alone, curative, 7 days at 20° C.

Where two headings read alike, the source gives them in different places.

Regarding `O=C1C2CC=CCC2C(=O)N1SC(Cl)(Cl)Cl` (stereo not shown) [Captan], in experiment [1], the EC50 turned out to be 424 µM.
With `N#Cc1c(Cl)c(Cl)c(Cl)c(C#N)c1Cl` [Chlorothalonil], the values for the EC50 in experiment [2], in [3] and in [4] were 29 µM, 52 µM and 2 µM, respectively.
In the case of `Cc1cc(C2CC2)nc(Nc2ccccc2)n1` [Cyprodinil], the EC50 in experiment [5] (setting [13]) came to 9 µM.
Take `CCCCCCCCCCCCNC(=N)N` [Dodine]: the EC50 is 189 µM in [6]; 156 µM in experiment [7]; 110 µM in experiment [8]; 92 µM in experiment [9]; 476 µM in experiment [5]; 93 µM in [10].
With `N#Cc1c[nH]cc1-c1cccc2c1OC(F)(F)O2` [Fludioxonil], in [5], the EC50 was 1 µM.
Consider `Cc1cc(C)nc(Nc2ccccc2)n1` [Pyrimethanil], for which the EC50 in experiment [8] (setting [14]) stood at 3 µM; in experiment [2], 28 µM.
Turning to `CC(C)(C)C(O)(CCc1ccc(Cl)cc1)Cn1cncn1` (stereo not shown) [Tebuconazole], the EC50 in experiment [7] (setting [14]) turned out to be 27 µM; in experiment [8] (setting [14]), 30 µM; in experiment [2], 18 µM; in experiment [9] (setting [14]), 1 µM; in [11] it was 179 µM; in [5] (setting [13]) it was 300 µM. Besides, the EC50 in [1] was 6 µM; in experiment [12], 25 µM.

One may read the EC50 as the concentration giving half of the maximal effect.
